Read-outs that look alike come from different tables or passages of the source.

For orientation: melting point means the temperature of the solid-liquid transition. As a reminder, the ED50 is the dose that gives a 50% effect, or the effect in half of the subjects.

In data set [1] the target is T1, cloned human h-NK2 receptors expressed in Sf9 cells (Homo sapiens, UniProt P21452).
T1 construct: expressed in transfected cells; host or cells: Sf9 cells
T1 sequence (P21452 1-398): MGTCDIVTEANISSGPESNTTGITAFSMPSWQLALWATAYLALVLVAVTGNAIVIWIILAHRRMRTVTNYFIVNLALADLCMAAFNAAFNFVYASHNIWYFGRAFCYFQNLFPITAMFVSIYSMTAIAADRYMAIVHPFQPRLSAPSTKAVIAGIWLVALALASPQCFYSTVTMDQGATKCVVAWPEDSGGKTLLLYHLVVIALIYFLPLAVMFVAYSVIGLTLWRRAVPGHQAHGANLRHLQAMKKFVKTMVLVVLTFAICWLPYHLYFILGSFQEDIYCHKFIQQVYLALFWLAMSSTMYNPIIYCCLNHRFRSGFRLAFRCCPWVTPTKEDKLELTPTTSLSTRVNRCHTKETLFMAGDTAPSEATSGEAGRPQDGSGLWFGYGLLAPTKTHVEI
Put plainly: Binding experiment for h-NK2 receptors ([3H]-SR-48968 displacement). Particulars: [3H]-SR-48968, Sf9 cells; read-out: h-NK2 pIC50 (converted). The procedure:
(§1) The compounds according to the invention were investigated for interaction with various neurotransmitter receptors, ion channels and transporter binding sites using the radioligand binding technique. Membranes from tissue homogenates or from cells, expressing the receptor or transporter of interests, were incubated with a radioactively labelled substance ([^3H]- or [^125I] ligand) to label a particular receptor. […] Following incubation, labelled membranes were harvested and rinsed with excessive cold buffer to remove non-bound radioactivity by rapid filtration under suction. Membrane bound radioactivity was counted in a scintillation counter and results were expressed in counts per minute (cpm).
(§2) The compounds were dissolved in DMSO and tested at 10 concentrations ranging from 10^−10 to 10^−5 M.
(§3) The ability of the compounds according to the invention to displace [^3H]-Substance P from cloned human h-NK1 receptors expressed in CHO cells, to displace [^3H]-SR-48968 from cloned human h-NK2 receptors expressed in Sf9 cells, and to displace [^3H]-SR-142801 from cloned human h-NK3 receptors expressed in CHO cells was evaluated.

Data set [2] deals with T2, cloned human h-NK1 receptors expressed in CHO cells (Homo sapiens, UniProt P25103).
T2 construct: expressed in transfected cells; host or cells: CHO cells
As to the kind of experiment: Binding experiment for h-NK1 receptors ([3H]-Substance P displacement). Particulars: read-out: h-NK1 pIC50 (converted). The procedure: as §1, §2, §3

The target of data set [3] is T3, cloned human h-NK3 receptors expressed in CHO cells (Homo sapiens, UniProt P29371).
T3 construct: expressed in transfected cells; host or cells: CHO cells
T3 sequence (P29371 1-465): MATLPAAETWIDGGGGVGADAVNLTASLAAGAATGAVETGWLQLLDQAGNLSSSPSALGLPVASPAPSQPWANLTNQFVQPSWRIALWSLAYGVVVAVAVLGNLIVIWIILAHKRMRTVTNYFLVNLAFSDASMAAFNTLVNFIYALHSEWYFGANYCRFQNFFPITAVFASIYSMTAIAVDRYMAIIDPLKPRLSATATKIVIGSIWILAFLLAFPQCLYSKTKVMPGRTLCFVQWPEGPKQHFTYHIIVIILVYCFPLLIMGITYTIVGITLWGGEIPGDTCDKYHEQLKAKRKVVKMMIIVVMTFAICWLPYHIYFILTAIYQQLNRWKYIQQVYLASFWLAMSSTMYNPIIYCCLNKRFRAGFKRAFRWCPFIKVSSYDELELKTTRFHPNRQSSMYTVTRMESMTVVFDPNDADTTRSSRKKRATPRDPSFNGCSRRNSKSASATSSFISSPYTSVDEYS
Put plainly: Binding experiment for h-NK3 receptors ([3H]-SR-142801 displacement). Particulars: [3H]-SR-142801, CHO cells; read-out: h-NK3 pIC50 (converted). The protocol: as §1, §2, §3

Data set [4] relates to loperamide-induced retching. As to the kind of experiment: Antiemetic effects: loperamide-induced retching in ferrets. The data set is classed as in vivo. Particulars: ferrets. The procedure: The antiemetic effects have been determined using the loperamide-induced retching model (i.e. retching induced by an opioid) in ferrets. To exclude species differences in antiemetic activiey, both compounds have also been tested for antiemetic activity against apomorphine in dogs.
Antagonism of emesis induced by the peripherally selective opioid loperamide (0.31 mg/kg, s.c.) was studied over a 1 h-period starting immediately after the emetic challenge in ferrets pretreated with test compound or solvent. In control animals pre-treated with solvent, loperamide induced pronounced retching (mean±SD: 95±39 counts; n=[…]) and, to a lesser extent, vomiting (5±4).

T2 sequence (P25103 whole entry): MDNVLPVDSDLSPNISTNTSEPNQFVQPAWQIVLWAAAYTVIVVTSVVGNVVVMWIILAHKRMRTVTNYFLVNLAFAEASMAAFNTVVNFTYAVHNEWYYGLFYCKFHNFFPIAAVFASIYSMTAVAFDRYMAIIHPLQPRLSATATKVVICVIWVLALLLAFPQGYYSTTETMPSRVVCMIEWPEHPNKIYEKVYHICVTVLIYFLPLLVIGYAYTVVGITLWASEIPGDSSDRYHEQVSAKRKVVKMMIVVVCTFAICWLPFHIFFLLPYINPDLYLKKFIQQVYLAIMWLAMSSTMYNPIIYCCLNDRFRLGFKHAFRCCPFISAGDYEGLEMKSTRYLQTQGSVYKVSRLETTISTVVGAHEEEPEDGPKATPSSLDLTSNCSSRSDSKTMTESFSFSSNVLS

The compound `O=C(c1cc(C(F)(F)F)cc(C(F)(F)F)c1)N1CCC(N2CCN(C3CCN(Cc4nc5ccccc5[nH]4)CC3)CC2)CC1Cc1ccccc1` (stereo not drawn) [Compound 7] displayed a melting point of 135 °C. For the same compound, the IC50 in data set [1] was 1000 nM. For the same compound, the IC50 in data set [2] was 7.94 nM. The IC50 in data set [3] is 1000 nM.
Turning to `N#Cc1cccc(C(=O)N2CCC(N3CCN([C@H]4CCN(C(=O)c5cc(C(F)(F)F)cc(C(F)(F)F)c5)[C@H](Cc5ccccc5)C4)CC3)CC2)c1` [Compound 39], the IC50 in data set [1] is 1000 nM; in data set [2], 0.794 nM; in data set [3], 1000 nM.
For `COc1ccc(C)cc1S(=O)(=O)N1CCC(N2CCN(C3CCN(C(=O)c4cc(C(F)(F)F)cc(C(F)(F)F)c4)C(Cc4ccccc4)C3)CC2)CC1` (stereo not drawn) [Compound 119], the IC50 in data set [1] was 1000 nM; in data set [2] it was 25.1 nM; in data set [3], 1000 nM.
For the compound `O=C(c1ccccc1)N1CCC(N2CCN(C3CCN(C(=O)c4cc(C(F)(F)F)cc(C(F)(F)F)c4)C(Cc4ccccc4)C3)CC2)CC1` (stereo not drawn) [Compound 3, {4-[4-(1-benzoyl-piperidin-4-yl)-piperazin-1-yl]-2-benzyl-piperidin-1-yl}-(3,5-bis-trifluoromethyl-phenyl)-methanone], the IC50 in data set [1] was 501 nM; in data set [2], 1.26 nM; in data set [3] it was 251 nM. The “ratio of oral ED50 (at time of peak effect) over subcutaneous ED50 (obtained at 1 h)” value in data set [4] is reported as 1.4-1.8. In addition, the ED50 in data set [4] (blockade (=0 retches), intravenous route, 1 h after administration, read-out: ED50 for blockade of loperamide-induced retching) stood at 0.88 mg/kg; in data set [4] (blockade (=0 retches), oral route, 1 h after administration, read-out: ED50 for blockade of loperamide-induced retching), 1.65 mg/kg; in data set [4] (blockade (=0 retches), oral route, 2 h after administration, read-out: ED50 for blockade of loperamide-induced retching), 2.18 mg/kg; in data set [4] (blockade (=0 retches), oral route, 4 h after administration, read-out: ED50 for blockade of loperamide-induced retching), 1.25 mg/kg; in data set [4] (blockade (=0 retches), oral route, 8 h after administration, read-out: ED50 for blockade of loperamide-induced retching), 2.89 mg/kg; in data set [4] (blockade (=0 retches), oral route, 16 h after administration, read-out: ED50 for blockade of loperamide-induced retching), 2.89 mg/kg. Moreover, the median effective dose (ED50) is 5 mg/kg in data set [4] (blockade (=0 retches), oral route, 32 h after administration, read-out: ED50 for blockade of loperamide-induced retching); above 10 mg/kg in data set [4] (blockade (=0 retches), oral route, 64 h after administration, read-out: ED50 for blockade of loperamide-induced retching); 0.39 mg/kg in data set [4] (inhibition (<20 retches), intravenous route, 1 h after administration, read-out: ED50 for inhibition of loperamide-induced retching); 0.72 mg/kg in data set [4] (inhibition (<20 retches), oral route, 1 h after administration, read-out: ED50 for inhibition of loperamide-induced retching); 0.96 mg/kg in data set [4] (inhibition (<20 retches), oral route, 2 h after administration, read-out: ED50 for inhibition of loperamide-induced retching); 1.25 mg/kg in data set [4] (inhibition (<20 retches), oral route, 4 h after administration, read-out: ED50 for inhibition of loperamide-induced retching). In addition, the median effective dose (ED50) in data set [4] (inhibition (<20 retches), oral route, 8 h after administration, read-out: ED50 for inhibition of loperamide-induced retching) was 1.25 mg/kg; in data set [4] (inhibition (<20 retches), oral route, 16 h after administration, read-out: ED50 for inhibition of loperamide-induced retching), 1.26 mg/kg; in data set [4] (inhibition (<20 retches), oral route, 32 h after administration, read-out: ED50 for inhibition of loperamide-induced retching), 3.81 mg/kg; in data set [4] (inhibition (<20 retches), oral route, 64 h after administration, read-out: ED50 for inhibition of loperamide-induced retching), above 10 mg/kg; in data set [4] (oral administration, time of peak effect, read-out: graphically estimated peak-effect ED50 for blockade of retching (=0 retches)), 1.4 mg/kg; in data set [4] (iv, read-out: ED50 for blockade of retching 1 h after i.v. injection, i.v., 1 h) it was 0.88 mg/kg. Moreover, the ED50 in data set [4] (iv, read-out: ED50 for inhibition of retching 1 h after i.v. injection, i.v., 1 h) was 0.39 mg/kg; in data set [4] (read-out: ED50 (95% confidence limits) for blockade of loperamide-induced retching, p.o. route (−2 h), loperamide 0.31 mg/kg s.c., 2 h after oral administration, blockade = 0 retches) it was 2.18 mg/kg; in data set [4] (read-out: graphically estimated peak-effect ED50 for inhibition of retching (<20 retches), oral administration, time of peak effect) it was 1 mg/kg; in data set [4] (sc, read-out: ED50 for blockade of loperamide-induced retching, loperamide 0.31 mg/kg s.c., 1 h after subcutaneous administration, blockade = 0 retches) it was 0.96 mg/kg; in data set [4] (sc, blockade (=0 retches), subcutaneous route, 1 h after administration, read-out: ED50 for blockade of loperamide-induced retching) it was 0.96 mg/kg; in data set [4] (sc, inhibition (<20 retches), subcutaneous route, 1 h after administration, read-out: ED50 for inhibition of loperamide-induced retching), 0.55 mg/kg. Further, the median effective dose (ED50) in data set [4] (sc, s.c., 1 h, <20 retches, read-out: ED50 for inhibition of retching one hour after s.c. injection) is 0.55 mg/kg; in data set [4] (sc, s.c., 1 h, =0 retches, read-out: ED50 for complete blockade of retching one hour after s.c. injection), 0.96 mg/kg. In data set [4] (oral, at 4 times the peak-effect dose), the duration of action is 32 h. Further, the “Ratio p.o./s.c. of ED50 for blockade of retching” value in data set [4] (p.o. (−2 h) over s.c. (−1 h)) was determined as 2.3.
`O=C(C(c1ccccc1)N1CCOCC1)N1CCC(N2CCN([C@H]3CCN(C(=O)c4cc(C(F)(F)F)cc(C(F)(F)F)c4)[C@H](Cc4ccccc4)C3)CC2)CC1` (stereo partly drawn) [Compound 116]: the figures for the IC50 in data set [1], in data set [2] and in data set [3] were 794 nM, 2.51 nM and 158 nM, respectively.
Consider `O=C(c1cc(F)c(F)cc1F)N1CCC(N2CCN([C@H]3CCN(C(=O)c4cc(C(F)(F)F)cc(C(F)(F)F)c4)[C@H](Cc4ccccc4)C3)CC2)CC1` [Compound 62], for which the IC50 is 398 nM in data set [1], 0.631 nM in data set [2] and 251 nM in data set [3].
The like results for `Cc1cccc(C)c1NC(=O)CN1CCC(N2CCN([C@H]3CCN(C(=O)c4cc(C(F)(F)F)cc(C(F)(F)F)c4)[C@H](Cc4ccccc4)C3)CC2)CC1` [Compound 97] were, in that order, 501 nM, 0.316 nM and 398 nM.

The values are drawn from patent publication US20060128721A1, “Novel formulations of opioid-based treatments of pain comprising substituted 1,4-di-piperidin-4-yl-piperazine derivatives” (priority 2003, published 2006).
